Source: patent publication US5135935A, “Squalene synthetase inhibitors” (Merck & Co., Inc., priority 1991, dated 1992)

Molecular target: T1, Squalene Synthetase (Rattus norvegicus, UniProt Q02769)
T1 construct: from tissue; host or cells: liver microsomes of male Charles River CD rats fed 0.1% lovastatin
T1 sequence (Q02769 1-416): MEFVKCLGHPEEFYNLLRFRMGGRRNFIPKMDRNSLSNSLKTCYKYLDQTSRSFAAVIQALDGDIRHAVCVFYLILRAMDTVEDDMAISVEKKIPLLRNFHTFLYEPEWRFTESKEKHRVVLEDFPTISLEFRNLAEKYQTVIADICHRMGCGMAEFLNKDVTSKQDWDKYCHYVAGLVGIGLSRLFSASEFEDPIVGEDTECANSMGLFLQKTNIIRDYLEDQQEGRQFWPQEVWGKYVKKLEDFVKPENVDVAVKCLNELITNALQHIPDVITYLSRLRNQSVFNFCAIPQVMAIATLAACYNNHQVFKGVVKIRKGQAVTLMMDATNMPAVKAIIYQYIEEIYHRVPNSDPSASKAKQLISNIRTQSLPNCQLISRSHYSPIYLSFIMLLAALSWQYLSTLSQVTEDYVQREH
Test: Squalene synthetase assay, rat liver microsomes, [4-14C]farnesyl pyrophosphate
Format: biochemical
Settings: salt form as tabulated; for IC50: 30° C., 20 minutes; for inhibition at 0.3 µg/mL: conc. 0.3 μg/mL
Method: The intrinsic squalene synthetase inhibitory activity of representative compounds of this invention was measured by the standard in vitro protocol described below:
Male, Charles River CD rats (120 to 150 g) were fed a diet containing 0.1% lovastatin for 4 days. The livers from these rats were homogenized in 5 volumes (mL/g) of ice cold 50 mM HEPES (4-(2-hydroxyethyl)-1-piperazine-ethanesulfonic acid), 5 mM EDTA (ethylenediaminetetraacetic acid) pH 7.5 with a Potter-Elvehjem type tissue grinder. The homogenate was centrifuged twice at 20,000×g for 15 minutes at 4° C., discarding the pellet each time. The supernatant was then centrifuged at 100,000×g for 1 hour at 4° C. The resulting microsomal pellet was resuspended in a volume of the above homogenizing buffer equal to one-fifth the volume of the original homogenate. This microsomal preparation has a protein concentration of about 7 mg/mL. The microsomal suspensions were stored in aliquots at -70° C. Squalene synthetase activity in these aliquots is stable for at least several months.
Prenyl transferase was purified to use in the enzymatic synthesis of radiolabelled farnesyl pyrophosphate. Prenyl transferase was assayed by the method of Rilling (Methods in Enzymology 110, 125-129 (1985)) and a unit of activity is defined as the amount of enzyme that will produce 1 μmole of farnesyl pyrophosphate per minute at 30° C. in the standard assay.
The livers of 23 forty-day old male rats that had been fed 5% cholestyramine plus 0.1% lovastatin were homogenized in a Waring blender in 1 liter of 10 mM mercaptoethanol, 2 mM EDTA, 25 μM leupeptin, 0.005% phenylmethyl sulfonyl fluoride pH 7.0 containing 0.1 trypsin inhibitor units of aprotinin/mL. The homogenate was centrifuged at 20,000×g for 20 minutes. The supernatant was adjusted to pH 5.5. with 6N HOAc and centrifuged at 100,000×g for 1 hour. This supernatant was adjusted to pH 7.0 with 3N KOH and a 35-60% ammonium sulfate fraction taken. The 60% pellet was redissolved in 60 mL of 10 mM potassium phosphate, 10 mM mercaptoethanol, 1 mM EDTA pH 7.0 (Buffer A) and dialyzed against two 1 liter changes of Buffer A. This dialyzed fraction was applied to a 12.5×5 cm column of DEAE-sepharose 4B equilibrated with Buffer A. The column was washed with 700 mL of Buffer A and a 1 liter gradient from Buffer A to 100 mM potassium phosphate, 10 mM mercaptoethanol, 1 mM EDTA pH 7.0. Fractions having a specific activity greater than 0.20 units/mg were combined, solid ammonium sulfate was added to bring to 60% saturation and pelleted. The pellet was dissolved in 8 mL of 10 mM Tris, 10 mM β-mercaptoethanol pH 7.0 (Buffer B). The redissolved pellet was taken to 60% saturation with ammonium sulfate by adding 1.5 volumes of saturated ammonium sulfate in Buffer B. This ammonium sulfate suspension contained 3.5 units/mL with a specific activity of 0.23 units/mg and was free of isopentenyl pyrophosphate isomerase activity. This ammonium sulfate suspension was used for the synthesis of [4-^14 C]farnesyl-pyrophosphate and its activity was stable stored at 4° C. for at least 6 months.
The solvent (ethanol: 0.15N NH4 OH, 1:1) was removed from 55 μCi of [4-^14 C]isopentenyl pyrophosphate(47.9 μCi/μmole) by rotary evaporation. Six hundred microliters of 100 mM Tris, 10 mM MgCl2, 4 mM dithiothreitol pH 7.5 was added and the solution was transferred to a 1.5 ml Eppendorf centrifuge tube. Geranyl-pyrophosphate, 250 μL of a 20 mM solution, and 50 μL of the ammonium sulfate suspension of prenyl transferase were added to initiate the reaction. This incubation contained 5 μmoles of geranyl pyrophosphate, 1.15 μmoles of isopentenyl pyrophosphate, 6 μmoles of MgCl2 of 0.18 units of prenyl transferase in a volume of 900 μL. The incubation was conducted at 37° C. During the incubation, the mix turned cloudy white as the newly formed magnesium complex of farnesyl pyrophosphate precipitated out of solution. […]

| SMILES | IC50 (in absence of PPi) [nM] | IC50 (in presence of 1 mM PPi) [nM] | inhibition at 0.3 µg/mL (in presence of 1 mM PPi) [%] |
| --- | --- | --- | --- |
| Cn1cc(-c2noc(C3CN4CCC3CC4)n2)c2ccccc21 (centres unmarked) [Compound 3, 3-[3-(1-methyl-1H-indol-3-yl)-1,2,4-oxadiazol-5-yl]-1-azabicyclo[2.2.2]octane] | 1600 | 28 |  |
| Cn1cc(-c2noc(C3CN4CCC3CC4)n2)c2cc(F)ccc21 (centres unmarked) [Compound 4, 3-[3-(5-fluoro-1-methyl-1H-indol-3-yl)-1,2,4-oxadiazol-5-yl]-1-azabicyclo[2.2.2]octane] |  |  | 97 |
| CC(=O)OC(c1ccccc1)c1noc(C2CN3CCC2CC3)n1 (centres unmarked) [Compound 6, 3-[3-(1-acetoxy-1-phenylmethyl)-1,2,4-oxadiazol-5-yl]-quinuclidine] |  |  | 70 |
| OC(c1ccccc1)c1noc(C2CN3CCC2CC3)n1 (stereo not drawn) [Compound 7, α-phenyl-5-(1-azabicyclo[2.2.2]oct-3-yl)-1,2,4-oxadiazole-3-methanol] |  |  | 49 |
| Cn1c(-c2noc(C3CN4CCC3CC4)n2)cc2ccccc21 (centres unmarked) [Compound 15, 3-[3-(1-methyl-1H-indol-2-yl)-1,2,4-oxadiazol-5-yl]-1-azabicyclo[2.2.2]octane] | 1100 | 20 |  |
| Cc1ccc2c(c1)c(-c1noc(C3CN4CCC3CC4)n1)cn2C (centres unmarked) [Compound 19, 3-[3-(1,5-dimethyl-1H-indol-3-yl)-1,2,4-oxadiazol-5-yl]-1-azabicyclo[2.2.2]octane] |  | 58 | 96 |
| c1ccc(-c2noc(C3CN4CCC3CC4)n2)cc1 (centres unmarked) [Compound 24, 3-[3-phenyl-1,2,4-oxadiazol-5-yl]-1-azabicyclo[2.2.2]octane] |  | 43 | 98 |
| c1cncc(-c2noc(C3CN4CCC3CC4)n2)c1 (centres unmarked) [Compound 26, 3-[3-(3-pyridinyl)-1,2,4-oxadiazol-5-yl]-1-azabicyclo[2.2.2]octane] | > 10000 | 660 |  |
| c1ccc2c(-c3noc(C4CN5CCC4CC5)n3)cccc2c1 (centres unmarked) [Compound 27, 3-[3-(1-naphthalenyl)-1,2,4-oxadiazol-5-yl]-1-azabicyclo[2.2.2]octane] | 2300 | 11 | 99 |
| COc1cccc(-c2noc(C3CN4CCC3CC4)n2)c1 (centres unmarked) [Compound 28, 3-[3-(3-methoxyphenyl)-1,2,4-oxadiazol-5-yl]-1-azabicyclo[2.2.2]octane] | 2800 | 31 | 99 |
| COc1ccccc1-c1noc(C2CN3CCC2CC3)n1 (centres unmarked) [Compound 29, 3-[3-(2-methoxyphenyl)-1,2,4-oxadiazol-5-yl]-1-azabicyclo[2.2.2]octane] | 14000 | 250 |  |
| COc1ccc(-c2noc(C3CN4CCC3CC4)n2)cc1 (centres unmarked) [Compound 30, 3-[3-(4-methoxyphenyl)-1,2,4-oxadiazol-5-yl]-1-azabicyclo[2.2.2]octane] |  |  | 99 |
| Oc1ccccc1-c1noc(C2CN3CCC2CC3)n1 (centres unmarked) [Compound 31, 2-[5-(1-azabicyclo[2.2.2]oct-3-yl)-1,2,4-oxadiazol-5-yl]-phenol] |  |  | 90 |
| Oc1cccc(-c2noc(C3CN4CCC3CC4)n2)c1 (centres unmarked) [Compound 32, 3-[5-(1-azabicyclo[2.2.2]oct-3-yl)-1,2,4-oxadiazol-5-yl]-phenol] |  |  | 92 |
| Oc1ccc(-c2noc(C3CN4CCC3CC4)n2)cc1 (centres unmarked) [Compound 33, 4-[5-(1-azabicyclo[2.2.2]oct-3-yl)-1,2,4-oxadiazol-5-yl]-phenol] |  |  | 84 |
| OC(c1ccccc1)(c1ccccc1)c1noc(C2CN3CCC2CC3)n1 (centres unmarked) [Compound 34, 3-[3-(1,1-diphenyl-1-hydroxymethyl)-1,2,4-oxadiazol-5-yl]-quinuclidine] |  |  | 60 |
| c1ccc2c(-c3noc(C4CN5CCC4CC5)n3)c[nH]c2c1 (centres unmarked) [Compound 35, 3-[3-(1H-indol-3-yl)-1,2,4-oxadiazol-5-yl]-1-azabicyclo[2.2.2]octane] | 1900 | 23 | 98 |
| c1ccc2ncc(-c3noc(C4CN5CCC4CC5)n3)cc2c1 (centres unmarked) [Compound 36, 3-[3-(3-quinolyl)-1,2,4-oxadiazol-5-yl]-1-azabicyclo[2.2.2]octane] |  | 42 | 97 |
| O=C(c1ccccc1)c1noc(C2CN3CCC2CC3)n1 (centres unmarked) [Compound 37, 3-(3-benzoyl-1,2,4-oxadiazol-5-yl)quinuclidine] |  |  | 64 |
